Data as given in patent publication US20230386615A1, “BINDING SITE IN TYPE 1 RYANODINE RECEPTOR” (The Trustees of Columbia University in the City of New York, priority 2021, published 2023).

How the values were obtained:
[1] = system: HEK293 cells expressing mutant RyR1; assay: Ca2+ imaging, caffeine-induced Ca2+ release; format: cell-based, rabbit; details: both mutants, 1 mM H2O2, 10 mM caffeine
RyR1-WT [2] = target: T1, RyR1-WT (Oryctolagus cuniculus, UniProt P11716); format: binding, rabbit
T1 construct: Each fragment was subcloned into a full length RyR1 construct in pcDNA3.1 vector; expressed in transfected cells; host or cells: HEK293 (also 293T/17) cells, pcDNA3.1

RyR1-W996A [3] = target: T2, RyR1-W996A (Oryctolagus cuniculus, UniProt P11716, W996A); format: binding, rabbit
T2 construct: Each fragment was subcloned into a full length RyR1 construct in pcDNA3.1 vector; expressed in transfected cells; host or cells: HEK293 (also 293T/17) cells, pcDNA3.1

RyR1 [4] = target: T3, RyR1 (Oryctolagus cuniculus, UniProt P11716); assay: S107 binding in the presence of increasing concentrations of ATP or ADP; set-up: species or system rabbit
T3 construct: from tissue; host or cells: rabbit skeletal muscle sarcoplasmic reticulum microsomes

RyR1-W882A [5] = target: T4, RyR1-W882A (Oryctolagus cuniculus, UniProt P11716, W882A); assay: 3H-S107 binding, recombinant RyR1 HEK293 microsomes treated with PKA and H2O2; set-up: Each fragment was subcloned into a full length RyR1 construct in pcDNA3.1 vector; expressed in transfected cells; host or cells: HEK293 (also 293T/17) cells, pcDNA3.1; species or system rabbit; details: W882A mutation
purified RyR1 = target: T5, purified RyR1 (Oryctolagus cuniculus, UniProt P11716); assay: 3H-S107 binding to purified RyR1 in absence and presence of 10 mM ATP; set-up: species or system rabbit
T5 construct: RyR1 was purified from rabbit skeletal muscle; from tissue

RyR1-W996A [6] = target: T2, RyR1-W996A; assay: 3H-S107 binding, recombinant RyR1 HEK293 microsomes treated with PKA and H2O2; set-up: species or system rabbit
RyR1 [7] = target: T3, RyR1; assay: 3H-S107 radioligand binding, skeletal SR microsomes untreated or treated with PKA and H2O2; set-up: species or system rabbit
Protocol: For PKA-phosphorylated channel experiments, […] of microsomes were in vitro phosphorylated with 40 units of PKA catalytic subunit (SigmaAldrich, Cat #P2645) for 30 min at 30° C. in the presence of the following buffer: 50 mM Tris/PIPES pH 7.0, 8 mM MgCl2, 1 mM MgATP, and 1 mM EGTA. The samples were then spun by centrifuge for 10 min at 100,000×g. The resulting pellets were washed four times with wash buffer (300 mM sucrose, 10 mM imidazole, pH 7.4) and aliquots were frozen in liquid nitrogen and stored at −80° C. Oxidation of RyR1 was induced by incubating microsomes with 1 mM H2O2 for 30 min at room temperature prior to washing.
Titrative ^3H-S107 binding, performed in the absence and presence of 10 mM NaATP, was initiated by addition of ^3H-S107 (10-10,000 nM final concentration) to 0.1 mg skeletal sarcoplasmic reticulum (SR) microsomes in binding buffer (50 mM Tris-HCl, pH 7.5, 150 mM NaCl, 25 mM MgCl2). […] All samples were incubated at room temperature for 30 min ^3H-S107 binding was stopped by addition of ice-cold binding buffer prior to filtration through GF/B Whatman filters pre-equilibrated with 0.015% PE. Filters were washed 3 times with 5 mL of wash buffer (10 mM MOPS, 200 mM NaCl, pH 7.4), dried, and counted. Data were normalized to ^3H-ryanodine binding. […].

RyR1-WT [8] = target: T1, RyR1-WT; assay: 3H-S107 binding, recombinant RyR1 HEK293 microsomes treated with PKA and H2O2; set-up: species or system rabbit
RyR1-W882A [9] = target: T4, RyR1-W882A; details: radiolabeled ATP
[10] = first section of TABLE 5, 10 mM ATP added
[11] = third section of TABLE 5, ADP in place of ATP

SMILES: COc1ccc2c(c1)CN(Cc1ccc(C(=O)O)cc1)CCS2 [Compound 1, 4-[(7-methoxy-2,3-dihydro-1,4-benzothiazepin-4(5H)-yl)methyl]benzoic acid]
- caffeine-induced calcium release after oxidation [1]: unaffected

SMILES: Nc1ncnc2c1ncn2[C@@H]1O[C@H](COP(=O)(O)OP(=O)(O)O)[C@@H](O)[C@H]1O [ADP, adenosine diphosphate]
- stoichiometry (RyR1-WT [2]): 12 molecules per channel
- ADP binding stoichiometry, in words (RyR1-W996A [3]; RyR1-W996A): greater than one molecule per channel
- competition with S107 binding (RyR1 [4]): significant inhibitory effect

SMILES: COc1ccc2c(c1)CN(C)CCS2 [Compound S107]
- 3H-S107 binding to the channel, in words (RyR1-W882A [5]): abolished
- Bmax (purified RyR1; 10 mM ATP): 3.0 ± 0.2 mol S107/mol RyR1
- Kd (purified RyR1; 10 mM ATP): 152 ± 7 nM
- Bmax (purified RyR1; No ATP): 0.4 ± 1.0 mol S107/mol RyR1
- Kd (purified RyR1; No ATP): 147 ± 6 nM
- Kd (RyR1-W996A [6]): 250 ± 10 nM
- Bmax (RyR1-W996A [6]; RyR1-W996A, third section of TABLE 5, ADP in place of ATP): 2.0 ± 0.2 mol S107/mol RyR1
- Bmax (RyR1 [7]; PKA/H2O2 treated microsomes): 3.7 ± 0.2 mol S107/mol RyR1
- Kd (RyR1 [7]; PKA/H2O2 treated microsomes): 155 ± 9 nM
- Bmax (RyR1 [7]; Untreated microsomes): 0.4 ± 0.1 mol S107/mol RyR1
- Kd (RyR1 [7]; Untreated microsomes): 150 ± 7 nM
- Bmax (RyR1-WT [8]; [10]): 3.5 ± 0.3 mol S107/mol RyR1
- Kd (RyR1-WT [8]; [10]): 200 ± 11 nM
- Bmax (RyR1-WT [8]; [11]): 3.6 ± 0.3 mol S107/mol RyR1
- Kd (RyR1-WT [8]; [11]): 188 ± 12 nM

SMILES: Nc1ncnc2c1ncn2[C@@H]1O[C@H](COP(=O)(O)OP(=O)(O)OP(=O)(O)O)[C@@H](O)[C@H]1O [ATP, adenosine triphosphate]
- ATP binding, in words (RyR1-W882A [9]): maintained, although slightly reduced
- ATP binding, in words (RyR1-W996A [3]; W996A mutant): significantly reduced
